# Laboratory results published in PMC8533202, “Design of Inhibitors of the Intrinsically Disordered Protein NUPR1: Balance between Drug Affinity and Target Function” (Biomolecules, 2021).
# Values joined by “and” are separate entries in the source; they are usually repeats but may differ in a detail not shown here. Identical values can stand only once. Like-named read-outs stand apart in the source and are kept apart here.
# Tests used:
# [1] = system: NUPR1 nuclear translocation; experiment: NUPR1 nuclear translocation, immunofluorescence in MiaPaCa-2 cells; format: cell-based, human; details: 3 µM, 6 h (Figure 4)
# Protocol: Cells (100000 cells/well) were seeded in 12-well plates on coverslips overnight and then treated with 3 μM concentration of each compound for […]. After fixation with 4% paraformaldehyde (Sigma-Aldrich, St. Quentin, Fallavier, France) for 15 min, cells were washed twice with 1x PBS and incubated 1 h with the following antibodies at 1:200 dilution: rabbit anti-NUPR1 primary antibody (homemade) or γH2AX primary antibody (ab26350, Abcam, Paris, France). After the washing steps, samples were incubated 1 h with secondary antibodies at 1:500 dilution (goat anti-rabbit Alexa Fluor 488, A27034, or goat anti-mouse Alexa Fluor 488, A28175, both from Thermo Fisher Scientific, Franklin, MA, USA). ProLong™ Gold Antifade Mountant with DAPI (P36931, Thermo Fisher Scientific) was used to stain the nucleus and seal the samples. Image acquisition of Alexa Fluor 488-derived fluorescence and DAPI staining was detected with an LSM 880 controlled by Zeiss Zen Black 63x lens. Co-localization analysis and measurements in both channels were performed by using the ImageJ Coloc 2 plugin (version 3.0.5).
# MiaPaCa-2 cells were treated with representative ZZW-115-derived compounds (3 µM) for 6 h. […] DAPI staining was used to detect cell nuclei, and it was combined with the Alexa 488 fluorescence in the merged panel. […]
# PDAC082T cells [2] = experiment: Cell viability assay (PrestoBlue); format: cell-based; details: Homo sapiens; PDAC082T (classical subtype), 72 h
# Excerpt: (§1) Primary pancreatic cancer cells PDAC001T, PDAC012T, PDAC021T, PDAC081T, PDAC082T, PDAC087T, PDAC088T, PDAC089T, and PDAC115T were obtained from the PaCaOmics clinical trial registered at www.clinicaltrials.gov (accessed on 2 October 2021) with registration number NCT01692873. We included PDAC samples from both echoendoscopic ultrasound-guided fine-needle (EUS-FNA) biopsies for patients with unresectable tumors and from surgical specimens for patients undergoing surgery. The tumor samples of these patients were used to generate patient-derived xenograft in nude mice as previously reported. Xenografts obtained from mice were split into several small pieces and used for cell culture in a biosafety chamber: after fine mincing, they were treated with collagenase type V (ref C9263; Sigma-Aldrich, St. Louis, MO, USA) and trypsin/EDTA (ref 25200-056; Gibco, Life Technologies, Grand Island, NY, USA) and were suspended in Dulbecco’s modified Eagle’s medium supplemented with 1% w/w penicillin/streptomycin (Gibco, Life Technologies, Paisley, UK) and 10% fetal bovine serum (Lonza Inc., Walkersville, MD, USA). After centrifugation, cells were resuspended in serum-free ductal media adapted from Schreiber et al. at 37 °C in a 5% CO2 incubator. Amplified cells were stored in liquid nitrogen as previously reported. Cells were weaned from antibiotics for ≥48 h before testing.
# (§2) Cell viability was evaluated in ten pancreatic cancer cell lines, including MiaPaCa-2, and nine primary pancreatic cancer-derived cell lines: PDAC001T, PDAC012T, PDAC021T, PDAC081T, PDAC082T, PDAC087T, PDAC088T, PDAC089T, and PDAC115T. MiaPaCa-2 cells were obtained from ATCC (Manassas, VA, USA) and maintained in DMEM (Invitrogen, Cergy-Pontoise, France), supplemented with 10% […] at 37 °C with 5% CO2. The primary pancreatic cancer-derived cells were cultured in serum free ductal media (SFDM) following a procedure adapted from those previously described, without antibiotic, and incubated at 37 °C in a 5% CO2 incubator. Cells were plated in 96-well plates (5000 cells/well) overnight. Then, the media were supplemented with the compounds to be tested at 0–100 µM concentration, and the samples were incubated for another additional 72 h before performing the measurement. Cell viability was estimated after addition of PrestoBlue™ reagent (Life Technologies, Paris, France) for 3 h according to the PrestoBlue™ cell viability reagent protocol provided by the supplier. Cell viability was normalized when comparing to untreated cell rates. Experiments were performed in triplicate and each set was repeated three times, with similar results.
# PDAC081T cells [3] = experiment: Cell viability assay (PrestoBlue); format: cell-based; details: Homo sapiens; PDAC081T (classical subtype), 72 h
# Excerpt: as §1, §2
# PDAC088T cells [4] = experiment: Cell viability assay (PrestoBlue); format: cell-based; details: Homo sapiens; PDAC088T (classical subtype), 72 h
# Excerpt: as §1, §2
# PDAC089T cells [5] = experiment: Cell viability assay (PrestoBlue); format: cell-based; details: Homo sapiens; PDAC089T (derived from a liver metastasis), 72 h
# Excerpt: as §1, §2
# PDAC021T cells [6] = experiment: Cell viability assay (PrestoBlue); format: cell-based; details: Homo sapiens; PDAC021T (basal subtype), 72 h
# Excerpt: as §1, §2
# PDAC115T cells [7] = experiment: Cell viability assay (PrestoBlue); format: cell-based; details: Homo sapiens; PDAC115T (basal subtype), 72 h
# Excerpt: as §1, §2
# PDAC087T cells [8] = experiment: Cell viability assay (PrestoBlue); format: cell-based; details: Homo sapiens; PDAC087T (basal subtype), 72 h
# Excerpt: as §1, §2
# PDAC012T cells [9] = experiment: Cell viability assay (PrestoBlue); format: cell-based; details: Homo sapiens; PDAC012T (classical subtype), 72 h
# Excerpt: as §1, §2
# PDAC001T cells [10] = experiment: Cell viability assay (PrestoBlue); format: cell-based; details: Homo sapiens; PDAC001T (basal subtype), 72 h
# Excerpt: as §1, §2
# MiaPaCa-2 cells [11] = experiment: Cell viability assay (PrestoBlue); format: cell-based, human; details: MiaPaCa-2, 72 h
# Protocol: as §2
# NUPR1 [12] = molecular target: T1, NUPR1 (Homo sapiens, UniProt O60356); experiment: Isothermal titration calorimetry (ITC) binding to NUPR1; details: 25 °C; for N (stoichiometry) / ΔG / ΔH / −TΔS: pH 7.0; for Ka / Kd: sodium phosphate 20 mM, pH 7.0, 2% DMSO; for Kd: read-out: Kd (=1/Ka)
# T1 construct: made in house
# T1 sequence (O60356 1-82): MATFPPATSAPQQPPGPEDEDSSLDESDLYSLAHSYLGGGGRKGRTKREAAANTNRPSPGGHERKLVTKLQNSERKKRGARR
# Protocol: The binding of the ZZW-115-derived compounds to NUPR1 was determined as described by using a high sensitivity isothermal titration calorimeter Auto-iTC200 (MicroCal, Malvern-Panalytical, Malvern, UK). Protein samples and solutions were properly degassed. Experiments were performed with freshly prepared protein solutions at 25 °C. A solution of NUPR1 (20 μM, in sodium phosphate 20 mM, pH 7.0, 2% DMSO) in the calorimetric cell was titrated with a solution of each compound (200 μM, in sodium phosphate 20 mM pH 7.0, 2% DMSO). The inhibitors were dissolved in the same buffer used for the protein. A standard protocol was employed: 19 titrant injections with 2 μL compound solution were programmed with a time spacing of 150 s, a stirring speed of 750 rpm, and a reference power of 10 μcal/s. The heat evolved after each ligand injection was calculated from the integral of the calorimetric signal. The heat due to the binding reaction was obtained as the difference between the reaction heat and the corresponding heat of injection, the latter estimated as a constant value throughout the experiment, and included as an adjustable parameter in the analysis. Control experiments (with the compounds injected into the buffer) were performed under the same experimental conditions.
# The association constant (Ka), the enthalpy change (ΔH) and the stoichiometry (n) of the binding reaction were obtained through nonlinear regression analysis of experimental data to a model assuming a single ligand binding site for the protein. Experiments were performed in replicate and data were analyzed using in-house-developed software implemented in Origin 7 (OriginLab).
# The interaction between ZZW-115-Derived compounds and NUPR1 was studied by using ITC, the gold-standard technique in binding-affinity determination, to test our theoretical prediction. […] From the thermogram (thermal power as a function of time), the binding isotherm (ligand-normalized heat as a function of the molar ratio) was obtained through integration of the individual heat effect associated with injection of each ligand solution (Figure 3). We used a nonlinear least-squares regression analysis employing a model that considered a single binding site in NUPR1 to estimate binding parameters such as the dissociation constant and the binding enthalpy.
# PDAC012T cells [13] = system: PDAC012T cells; set-up: method as in PMID 30920390; details: control, previously obtained; cited from earlier work
# PDAC081T cells [14] = system: PDAC081T cells; set-up: method as in PMID 30920390; details: control, previously obtained; cited from earlier work
# NUPR1 [15] = molecular target: T1, NUPR1; set-up: method as in PMID 28054562; details: molecular scaffold of TFP; cited from earlier work
# PDAC001T cells [16] = system: PDAC001T cells; set-up: method as in PMID 30920390; details: control, previously obtained; cited from earlier work
# PDAC089T cells [17] = system: PDAC089T cells; set-up: method as in PMID 30920390; details: control, previously obtained; cited from earlier work
# PDAC088T cells [18] = system: PDAC088T cells; set-up: method as in PMID 30920390; details: control, previously obtained; cited from earlier work
# NUPR1 [19] = molecular target: T1, NUPR1; set-up: method as in PMID 30920390; details: ITC; cited from earlier work
# PDAC082T cells [20] = system: PDAC082T cells; set-up: method as in PMID 30920390; details: control, previously obtained; cited from earlier work
# MiaPaCa-2 cells [21] = system: MiaPaCa-2 cells; set-up: method as in PMID 30920390; details: control, previously obtained; cited from earlier work
# PDAC021T cells [22] = system: PDAC021T cells; set-up: method as in PMID 30920390; details: control, previously obtained; cited from earlier work
# PDAC115T cells [23] = system: PDAC115T cells; set-up: method as in PMID 30920390; details: control, previously obtained; cited from earlier work
# PDAC087T cells [24] = system: PDAC087T cells; set-up: method as in PMID 30920390; details: control, previously obtained; cited from earlier work
SMILES,ability to hamper NUPR1 nuclear translocation [1],IC50 (PDAC082T cells [2]) [µM],IC50 (PDAC081T cells [3]) [µM],IC50 (PDAC088T cells [4]) [µM],IC50 (PDAC089T cells [5]) [µM],IC50 (PDAC021T cells [6]) [µM],IC50 (PDAC115T cells [7]) [µM],IC50 (PDAC087T cells [8]) [µM],IC50 (PDAC012T cells [9]) [µM],IC50 (PDAC001T cells [10]) [µM],"IC50 (MiaPaCa-2 cells [11]; Homo sapiens, MIA PaCa-2, 72 h) [µM]",IC50 (MiaPaCa-2 cells [11]) [µM],N (stoichiometry) (NUPR1 [12]),ΔG (NUPR1 [12]) [kcal mol^–1],ΔH (NUPR1 [12]) [kcal mol^–1],−TΔS (NUPR1 [12]) [kcal mol^–1],Ka (NUPR1 [12]) [M^–1 × 10^5],Kd (NUPR1 [12]),IC50 (PDAC012T cells [13]) [µM],IC50 (PDAC081T cells [14]) [µM],other results
CN(C)CCCN1CCN(CCCN2c3ccccc3Sc3ccc(C(F)(F)F)cc32)CC1 [ZZW-142],worst effect in hampering the nuclear translocation efficiency,23,2.27,23.9,22.5,17,14.7,16.6,12.8,11.9,~1,0.95,1.3 ± 0.1,−7.8 ± 0.1,0.3 ± 0.3,−8.1 ± 0.3,4.9 ± 0.3,2 ± 0.2 µM,–,–,–
"CN1CCN(CCCN2c3ccccc3Sc3ccc(C(F)(F)F)cc32)CC1 [TFP, trifluoperazine]",–,–,–,–,–,–,–,–,–,–,–,–,–,–,–,–,–,–,20.4,2.48,calculated binding score (NUPR1 [15]): –7.0 kcal/mol; IC50 (PDAC001T cells [16]): 12.5 µM; IC50 (PDAC089T cells [17]): 8.09 µM; IC50 (PDAC088T cells [18]): 15.9 µM; Ka (NUPR1 [19]): 1.9 ± 0.2 M^–1 × 10^5; N (stoichiometry) (NUPR1 [19]): 1.0 ± 0.1; ΔG (NUPR1 [19]): −7.2 ± 0.1 kcal mol^–1; ΔH (NUPR1 [19]): −1.1 ± 0.4 kcal mol^–1; −TΔS (NUPR1 [19]): −6.1 ± 0.4 kcal mol^–1; IC50 (PDAC082T cells [20]): 21.5 µM; IC50 (MiaPaCa-2 cells [21]): 9.28 µM; IC50 (PDAC021T cells [22]): 23.5 µM; IC50 (PDAC115T cells [23]): 10.1 µM; IC50 (PDAC087T cells [24]): 7.8 µM
FC(F)(F)c1ccc2c(c1)N(CCCN1CCN(CCN3CCOCC3)CC1)c1ccccc1S2 [ZZW-132],worst effect in hampering the nuclear translocation efficiency,21.1,1.91,23.6,29.1,16.5,16.1,16.6,12.2,12.5,~1,1.04,1.2 ± 0.1,−7.9 ± 0.1,0.3 ± 0.3,−8.2 ± 0.3,5.8 ± 0.4,~1.7 µM and 1.7 µM,–,–,–
CN(C)CCN1CCN(CCCN2c3ccccc3Sc3ccc(C(F)(F)F)cc32)CC1 [ZZW-115],–,–,–,–,–,–,–,–,–,–,–,–,–,–,–,–,–,–,2.44,0.84,IC50 (PDAC001T cells [16]): 1.84 µM; IC50 (PDAC089T cells [17]): 4.72 µM; IC50 (PDAC088T cells [18]): 5.29 µM; Ka (NUPR1 [19]): 4.7 ± 0.4 M^–1 × 10^5; N (stoichiometry) (NUPR1 [19]): 0.9 ± 0.1; ΔG (NUPR1 [19]): −7.7 ± 0.1 kcal mol^–1; ΔH (NUPR1 [19]): −0.4 ± 0.3 kcal mol^–1; −TΔS (NUPR1 [19]): −7.3 ± 0.3 kcal mol^–1; IC50 (PDAC082T cells [20]): 2.36 µM; IC50 (MiaPaCa-2 cells [21]): 0.32 µM; IC50 (PDAC021T cells [22]): 2.54 µM; IC50 (PDAC115T cells [23]): 2.21 µM; IC50 (PDAC087T cells [24]): 3.72 µM
